Converted amounts (≈) assume the structure as drawn. Like-named read-outs stand apart in the source and are kept apart here.
Tests used:
[1] = Metabolic stability in liver microsomes (intrinsic clearance); assay type: in vitro ADME; conditions: for Metabolic Stability (liver microsome intrinsic clearance) Clearance (mouse, μl/min./mg protein): mouse liver microsomes
Summary of the method: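 Compound (typically 1 μM) incubated at 37° C with liver microsomes (0.5 mg/ml protein) of selected species, 1 mM NADPH, 1 mM MgCl2, 0.1 M phosphate pH 7.4, sampled 0–60 min. Parent remaining measured by LC-MS/MS; t1/2 from log-linear slope, then Clint in μl/min/mg protein.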

[2] = HTChem stab assay (chemical stability in buffer pH2, pH4 and pH7 vs DMSO reference); assay type: physicochemical; conditions: 72 h, 50 µM; for Chemical stability data, Buffer pH2: pH 2; for Chemical stability data, Buffer pH4: pH 4; for Chemical stability data, Buffer pH7: pH 7
Summary of the method: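 Compound from 10 mM DMSO stock shaken 72 h at room temperature in Buffer/DMSO (2:1) at pH2 (0.1N HCl), pH4 or pH7 (phosphate), alongside a DMSO control. Samples analysed by LC/UV/MS against the DMSO reference; degradant peaks identified by MS and sample purity reported.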

[3] = test system: Salmonella typhimurium Ames II Mixed Strains (TA7001-TA7006) and TA98; assay: Genotoxicity assay (AmesIIb mutagenicity test); assay type: cell-based; conditions: Salmonella typhimurium; further: key: an AmesIIb score of 1 shows no genotoxicity signals
Summary of the method: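 Ames II fluctuation-type reverse mutation test using Ames II Mixed Strains (equimolar TA7001–TA7006, six base-pair substitutions) plus TA98 (frameshift). Run with and without mammalian metabolic activation across varying compound concentrations; His+ revertants selected on histidine-free medium.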

[4] = test system: Mycobacterium tuberculosis strain H37Rv; assay: Test 2: MIC determination against M. tuberculosis, resazurin fluorescence; assay type: cell-based; conditions: Test 2, M. tuberculosis H37Rv; for MIC90: read-out: Bacterial activity MIC90; for IC50: read-out: Bacterial activity pMIC50 (converted)
[5] = mouse, microsomes, 1 µM, pH 7.4
[6] = mouse, microsomes, pH 7.4, Metabolic Stability Half life (mouse, min.)
[7] = mouse, microsomes, pH 7.4, mouse liver microsomes, read-out: Metabolic Stability (liver microsome intrinsic clearance) Clearance (mouse, μl/min./mg protein)
[8] = Mycobacterium tuberculosis, H37RV
[9] = human, microsomes, pH 7.4, Metabolic Stability Half life (human, min.)
[10] = human, microsomes, pH 7.4, human liver microsomes, read-out: Metabolic Stability (liver microsome intrinsic clearance) Clearance (human, μl/min./mg protein)

CCc1nc2ncc(C)cn2c1C(=O)NCc1ccc(-c2cn3c(n2)CC(C(F)(F)F)CC3)cc1 (single isomer, unassigned) [Compound 3a]
Metabolic Stability (liver microsome intrinsic clearance) Clearance (human, μl/min./mg protein) ([1]; human liver microsomes): 13.4 μl/min./mg protein | Metabolic Stability Half life (human, min.) ([1]; human, microsomes, 1 µM, pH 7.4): 1.72 h | Metabolic Stability (liver microsome intrinsic clearance) Clearance (mouse, μl/min./mg protein) [1]: 7.78 μl/min./mg protein | Metabolic Stability Half life (mouse, min.) [1, 5]: 2.97 h | Chemical stability data, Vehicle DMSO [2]: 100% | Chemical stability data, Buffer pH2 [2]: 100% | Chemical stability data, Buffer pH4 [2]: 100% | Chemical stability data, Buffer pH7 [2]: 100% | GeneTox AmesIIb Score [3]: 1 | Bacterial activity pMIC50 [4]: 8.532 | MIC90 [4]: 0.008 µM (≈ 3.86 ng/mL)

CCc1nc2nc(C)ccn2c1C(=O)NCc1ccc(-c2nc3n(n2)CCC(C(F)(F)F)C3)cc1 (single isomer, unassigned) [Compound 5a]
half-life at 1 µM [1, 6]: > 3 h | microsomal CLint at 1 µM [1, 7]: < 7.7 µL/min/mg | Chemical stability data, Vehicle DMSO [2]: 100% | Chemical stability data, Buffer pH2 [2]: 100% | Chemical stability data, Buffer pH4 [2]: 100% | Chemical stability data, Buffer pH7 [2]: 100% | GeneTox AmesIIb Score [3]: 1 | MIC90 [4, 8]: 0.06 µM (≈ 29 ng/mL) | IC50 [4, 8]: 21600 pM

CCc1nc2ncc(Cl)cn2c1C(=O)NCc1ccc(-c2nc3n(n2)CCC(C(F)(F)F)C3)cc1 (single isomer, unassigned) [Compound 10a]
half-life at 1 µM [1, 6]: > 3 h | microsomal CLint at 1 µM [1, 7]: < 7.7 µL/min/mg | Chemical stability data, Vehicle DMSO [2]: 100% | Chemical stability data, Buffer pH2 [2]: 84% | Chemical stability data, Buffer pH4 [2]: 76% | Chemical stability data, Buffer pH7 [2]: 97% | GeneTox AmesIIb Score [3]: 1 | Bacterial activity pMIC50 [4]: <6.301

CCc1nc2ncc(Cl)cn2c1C(=O)NCc1ccc(-c2nc3n(n2)CCC(C(F)(F)F)C3)cc1 (single isomer, unassigned) [Compound 10b]
Metabolic Stability (liver microsome intrinsic clearance) Clearance (mouse, μl/min./mg protein) [1]: 11.1 μl/min./mg protein | Metabolic Stability Half life (mouse, min.) [1, 5]: 2.08 h | Chemical stability data, Vehicle DMSO [2]: 96% | Chemical stability data, Buffer pH2 [2]: 81% | Chemical stability data, Buffer pH4 [2]: 71% | Chemical stability data, Buffer pH7 [2]: 92% | GeneTox AmesIIb Score [3]: 1 | MIC90 [4, 8]: 0.021 µM (≈ 10.6 ng/mL) | Bacterial activity pMIC50 [4]: 8.207

CCc1nc2ncc(C)cn2c1C(=O)NCc1ccc(-c2nc3n(n2)CCC(C(F)(F)F)C3)cc1 (stereo not shown) [Compound 1ab]
half-life at 1 µM [1, 9]: > 3 h | microsomal CLint at 1 µM [1, 10]: < 7.7 µL/min/mg | half-life at 1 µM [1, 6]: > 3 h | microsomal CLint at 1 µM [1, 7]: < 7.7 µL/min/mg | Chemical stability data, Vehicle DMSO [2]: 100% | Chemical stability data, Buffer pH2 [2]: 100% | Chemical stability data, Buffer pH4 [2]: 100% | Chemical stability data, Buffer pH7 [2]: 100% | GeneTox AmesIIb Score [3]: 1 | MIC90 [4, 8]: 0.028 µM (≈ 13.5 ng/mL) | IC50 [4, 8]: 9550 pM

CCc1nc2ncc(C)cn2c1C(=O)NCc1ccc(-c2nc3n(n2)CCC(C)C3)cc1 (stereo not shown) [Compound 4ab]
half-life at 1 µM [1, 6]: 2.75 h | microsomal CLint at 1 µM [1, 7]: 8.38 µL/min/mg | Chemical stability data, Vehicle DMSO [2]: 98% | Chemical stability data, Buffer pH2 [2]: 98% | Chemical stability data, Buffer pH4 [2]: 98% | Chemical stability data, Buffer pH7 [2]: 98% | GeneTox AmesIIb Score [3]: 1 | MIC90 [4, 8]: 0.017 µM (≈ 7.3 ng/mL) | IC50 [4, 8]: 7050 pM

CCc1nc2nc(C)ccn2c1C(=O)NCc1ccc(-c2nc3n(n2)CCC(C(F)(F)F)C3)cc1 (stereo not shown) [Compound 5ab]
half-life at 1 µM [1, 6]: > 3 h | microsomal CLint at 1 µM [1, 7]: < 7.7 µL/min/mg | Chemical stability data, Vehicle DMSO [2]: 94% | Chemical stability data, Buffer pH2 [2]: 95% | Chemical stability data, Buffer pH4 [2]: 96% | Chemical stability data, Buffer pH7 [2]: 96% | GeneTox AmesIIb Score [3]: 1 | MIC90 [4, 8]: 0.023 µM (≈ 11.1 ng/mL) | IC50 [4, 8]: 8280 pM

CCc1nc2ncc(OC)cn2c1C(=O)NCc1ccc(-c2nc3n(n2)CCC(C(F)(F)F)C3)cc1 (stereo not shown) [Compound 6ab]
half-life at 1 µM [1, 6]: 1.62 h | microsomal CLint at 1 µM [1, 7]: 14.2 µL/min/mg | Chemical stability data, Vehicle DMSO [2]: 93% | Chemical stability data, Buffer pH2 [2]: 100% | Chemical stability data, Buffer pH4 [2]: 100% | Chemical stability data, Buffer pH7 [2]: 100% | GeneTox AmesIIb Score [3]: 1 | MIC90 [4, 8]: 0.007 µM (≈ 3.5 ng/mL) | IC50 [4, 8]: 3480 pM

CCc1nc2nc(C)c(C)cn2c1C(=O)NCc1ccc(-c2nc3n(n2)CCC(C(F)(F)F)C3)cc1 (stereo not shown) [Compound 9ab]
half-life at 1 µM [1, 6]: 1.66 h | microsomal CLint at 1 µM [1, 7]: 13.9 µL/min/mg | Chemical stability data, Vehicle DMSO [2]: 100% | Chemical stability data, Buffer pH2 [2]: 100% | Chemical stability data, Buffer pH4 [2]: 100% | Chemical stability data, Buffer pH7 [2]: 100% | GeneTox AmesIIb Score [3]: 1 | MIC90 [4, 8]: 0.011 µM (≈ 5.47 ng/mL) | IC50 [4, 8]: 4940 pM

CCc1nc2ncc(Cl)cn2c1C(=O)NCc1ccc(-c2nc3n(n2)CCC(C(F)(F)F)C3)cc1 (stereo not shown) [Compound 10ab]
half-life at 1 µM [1, 6]: > 3 h | microsomal CLint at 1 µM [1, 7]: < 7.7 µL/min/mg | Chemical stability data, Vehicle DMSO [2]: 90% | Chemical stability data, Buffer pH2 [2]: 72% | Chemical stability data, Buffer pH4 [2]: 64% | Chemical stability data, Buffer pH7 [2]: 90% | GeneTox AmesIIb Score [3]: 1 | MIC90 [4, 8]: 0.016 µM (≈ 8.06 ng/mL) | IC50 [4, 8]: 5500 pM

CCc1nc2nc(N)c(C)cn2c1C(=O)NCc1ccc(-c2nc3n(n2)CCC(C(F)(F)F)C3)cc1 (stereo not shown) [Compound 12ab]
half-life at 1 µM [1, 9]: > 3 h | microsomal CLint at 1 µM [1, 10]: < 7.7 µL/min/mg | half-life at 1 µM [1, 6]: > 3 h | microsomal CLint at 1 µM [1, 7]: < 7.7 µL/min/mg | Chemical stability data, Vehicle DMSO [2]: 99% | Chemical stability data, Buffer pH2 [2]: 100% | Chemical stability data, Buffer pH4 [2]: 100% | Chemical stability data, Buffer pH7 [2]: 100% | GeneTox AmesIIb Score [3]: 1 | MIC90 [4, 8]: 0.064 µM (≈ 31.9 ng/mL) | IC50 [4, 8]: 23400 pM

CCc1nc2ncc(C)cn2c1C(=O)NCc1ccc(-c2cc3n(n2)CCC(C(F)(F)F)C3)cc1 (stereo not shown) [Compound 20ab]
half-life at 1 µM [1, 9]: 0.637 h | microsomal CLint at 1 µM [1, 10]: 36.3 µL/min/mg | half-life at 1 µM [1, 6]: 1.08 h | microsomal CLint at 1 µM [1, 7]: 21.3 µL/min/mg | Chemical stability data, Vehicle DMSO [2]: 100% | Chemical stability data, Buffer pH2 [2]: 100% | Chemical stability data, Buffer pH4 [2]: 100% | Chemical stability data, Buffer pH7 [2]: 100% | GeneTox AmesIIb Score [3]: 1 | MIC90 [4, 8]: 0.003 µM (≈ 1.45 ng/mL) | IC50 [4, 8]: 931 pM

CCc1nc2ncc(C)cn2c1C(=O)NCc1ccc(-c2nc3n(n2)CCC(C(F)(F)F)C3)c(F)c1 (stereo not shown) [Compound 22ab]
half-life at 1 µM [1, 6]: 1.78 h | microsomal CLint at 1 µM [1, 7]: 13 µL/min/mg | Chemical stability data, Vehicle DMSO [2]: 98% | Chemical stability data, Buffer pH2 [2]: 97% | Chemical stability data, Buffer pH4 [2]: 97% | Chemical stability data, Buffer pH7 [2]: 98% | GeneTox AmesIIb Score [3]: 1 | MIC90 [4, 8]: 0.007 µM (≈ 3.51 ng/mL) | IC50 [4, 8]: 2290 pM

CCc1nc2ncc(C)cn2c1C(=O)NCc1ccc(-c2nc3n(n2)CCC(C(F)(F)F)C3)c(C)c1 (stereo not shown) [Compound 23ab]
half-life at 1 µM [1, 6]: 1.58 h | microsomal CLint at 1 µM [1, 7]: 14.6 µL/min/mg | Chemical stability data, Vehicle DMSO [2]: 100% | Chemical stability data, Buffer pH2 [2]: 100% | Chemical stability data, Buffer pH4 [2]: 100% | Chemical stability data, Buffer pH7 [2]: 100% | GeneTox AmesIIb Score [3]: 1 | MIC90 [4, 8]: 0.022 µM (≈ 10.9 ng/mL) | IC50 [4, 8]: 8300 pM
